Earlier results as cited in PubChem BioAssay AID1259409 (Chemical Carcinogenesis Research Information System (CCRIS), 2018).

System: rodent chemically induced tumor inhibition, incidence and multiplicity
Test: CCRIS tumor inhibitor studies
Conditions: Dose [Inhibitor]: 0

For `O=c1oc2c(O)c(O)cc3c(=O)oc4c(O)c(O)cc1c4c23`, the “tumour outcome (control, treated, inhibition, significance)” value (Carcinogen: 4-(METHYLNITROSOAMINO-1-(PYRIDYL)-1-BUTANONE, 64091-91-4, 4 G/KG DIET BEGINNING 2 WK PRIOR TO CARCINOGEN DOSE (STUDY DURATION: 18 WK), Route [Inhibitor]: ORAL, Species: MOUSE, Strain/Sex: STRAIN-A/FEMALE, Target Tissue: Type of Lesion: LUNG: ADENOMA, Dose [Carcinogen]: 2 MG IN 0.2 ML OF 0.9% NACL ONCE, Promoter: NONE USED) is given as 100%, 100%, 0%, not significant, the “tumour outcome (control, treated, inhibition, significance)” value (Carcinogen: 4-METHYLNITROSOAMINO-1-(PYRIDYL)-1-BUTANONE, 64091-91-4, 4 G/KG DIET BEGINNING 2 WK PRIOR TO CARCINOGEN DOSE AND CONTINUING FOR STUDY DURATION (STUDY DURATION: 18 WK), Route [Inhibitor]: ORAL, Species: MOUSE, Strain/Sex: STRAIN-A/FEMALE, Target Tissue: Type of Lesion: LUNG: ADENOMA, Dose [Carcinogen]: 62.4 UG/ML DRINKING WATER FOR 7 WK (TOTAL DOSE 9.4 MG), Promoter: NONE USED) is given as 100%, 96%, 4%, not calculated and the “tumour outcome (control, treated, inhibition, significance)” value (Carcinogen: 4-NITROQUINOLINE-1-OXIDE, 56-57-5, 400 PPM IN DIET FOR 7 WK BEGINNING 1 WK PRIOR TO START OF CARCINOGEN TREATMENT (STUDY DURATION: 32 WK), Route [Inhibitor]: ORAL, Species: RAT, Strain/Sex: F344/MALE, Target Tissue: Type of Lesion: TONGUE: PAPILLOMA, Dose [Carcinogen]: 20 PPM IN DRINKING WATER FOR 5 WK, Promoter: NONE USED) is given as 1/15 (7%), 0/15 (0%), 100%, not significant. For the same molecule, the “tumour outcome (control, treated, inhibition, significance)” value (Carcinogen: 7,12-DIMETHYLBENZ[A]ANTHRACENE, 57-97-6', 1000 PPM IN DIET FOR DURATION OF STUDY BEGINNING CONCURRENTLY WITH CARCINOGEN TREATMENT (STUDY DURATION: 42 WK0, Route [Inhibitor]: ORAL, Species: FISH, Strain/Sex: RAINBOW TROUT/ MALE, FEMALE, Target Tissue: Type of Lesion: LIVER: TUMOR, Dose [Carcinogen]: 750 PPM IN DIET FOR 7 WK, Promoter: NONE USED) was 6%, 9%, -50%, not significant, the “tumour outcome (control, treated, inhibition, significance)” value (Carcinogen: 7,12-DIMETHYLBENZ[A]ANTHRACENE, 57-97-6, 5 UMOL IN 0.4 ML ACETONE 20 MIN PRIOR TO EACH PROMOTER DOSE (STUDY DURATION: 47 WK), Route [Inhibitor]: DERMAL, Species: MOUSE, Strain/Sex: CF-1/FEMALE, Target Tissue: Type of Lesion: SKIN: CARCINOMA, Dose [Carcinogen]: 100 NMOL IN 0.2 ML ACETONE ONCE) was 67%, 17%, 75%, not calculated and the “tumour outcome (control, treated, inhibition, significance)” value (Carcinogen: 7,12-DIMETHYLBENZ[A]ANTHRACENE, 57-97-6, 5 UMOL IN 0.4 ML ACETONE 20 MIN PRIOR TO EACH PROMOTER DOSE (STUDY DURATION: 47 WK), Route [Inhibitor]: DERMAL, Species: MOUSE, Strain/Sex: CF-1/FEMALE, Target Tissue: Type of Lesion: SKIN: PAPILLOMA, Dose [Carcinogen]: 100 NMOL IN 0.2 ML ACETONE ONCE) was 94%, 54%, 43%, not calculated. The “tumour outcome (control, treated, inhibition, significance)” value (Carcinogen: 7,12-DIMETHYLBENZ[A]ANTHRACENE, 57-97-6, 100 PPM IN DIET FOR 19 WK BEGINNING POST CARCINOGEN TREATMENT (STUDY DURATION: 42 WK), Route [Inhibitor]: ORAL, Species: FISH, Strain/Sex: RAINBOW TROUT/ MALE, FEMALE, Target Tissue: Type of Lesion: STOMACH: TUMOR, Dose [Carcinogen]: 4.16 PPM IN WATER FOR 1 HR, Promoter: NONE USED) was 97%, 65%, 33%, p<0.001, the “tumour outcome (control, treated, inhibition, significance)” value (Carcinogen: 7,12-DIMETHYLBENZ[A]ANTHRACENE, 57-97-6, 100 PPM IN DIET FOR 19 WK BEGINNING POST CARCINOGEN TREATMENT (STUDY DURATION: 42 WK), Route [Inhibitor]: ORAL, Species: FISH, Strain/Sex: RAINBOW TROUT/ MALE, FEMALE, Target Tissue: Type of Lesion: SWIM BLADDER: TUMOR, Dose [Carcinogen]: 4.16 PPM IN WATER FOR 1 HR, Promoter: NONE USED) was 14%, 14%, 0%, not significant and the “tumour outcome (control, treated, inhibition, significance)” value (Carcinogen: 7,12-DIMETHYLBENZ[A]ANTHRACENE, 57-97-6, 250 PPM IN DIET FOR 19 WK BEGINNING POST CARCINOGEN TREATMENT (STUDY DURATION: 42 WK), Route [Inhibitor]: ORAL, Species: FISH, Strain/Sex: RAINBOW TROUT/ MALE, FEMALE, Target Tissue: Type of Lesion: LIVER: TUMOR, Dose [Carcinogen]: 4.16 PPM IN WATER FOR 1HR, Promoter: NONE USED) was 7%, 17%, -143%, p<0.001. For the same molecule, the “tumour outcome (control, treated, inhibition, significance)” value (Carcinogen: 7,12-DIMETHYLBENZ[A]ANTHRACENE, 57-97-6, 250 PPM IN DIET FOR 19 WK BEGINNING POST CARCINOGEN TREATMENT (STUDY DURATION: 42 WK), Route [Inhibitor]: ORAL, Species: FISH, Strain/Sex: RAINBOW TROUT/ MALE, FEMALE, Target Tissue: Type of Lesion: STOMACH: TUMOR, Promoter: NONE USED) was 97%, 39%, 60%, p<0.001, the “tumour outcome (control, treated, inhibition, significance)” value (Carcinogen: 7,12-DIMETHYLBENZ[A]ANTHRACENE, 57-97-6, 250 PPM IN DIET FOR 19 WK BEGINNING POST CARCINOGEN TREATMENT (STUDY DURATION: 42 WK), Route [Inhibitor]: ORAL, Species: FISH, Strain/Sex: RAINBOW TROUT/MALE, FEMALE, Target Tissue: Type of Lesion: SWIM BLADDER: TUMOR, Dose [Carcinogen]: 4.16 PPM IN WATER FOR 1HR, Promoter: NONE USED) was 14%, 13%, 7%, not significant and the “tumour outcome (control, treated, inhibition, significance)” value (Carcinogen: 7,12-DIMETHYLBENZ[A]ANTHRACENE, 57-97-6, 1000 PPM IN DIET FOR 17 WK BEGINNING POST CARCINOGEN TREATMENT (STUDY DURATION: 42 WK), Route [Inhibitor]: ORAL, Species: FISH, Strain/Sex: RAINBOW TROUT/ MALE, FEMALE, Target Tissue: Type of Lesion: STOMACH: TUMOR, Dose [Carcinogen]: 5.5 PPM IN WATER FOR 1 HR, Promoter: NONE USED) was 88%, 26%, 70%, p<0.001.
